The values below come from patent US6949679B1, “Polyamine transport inhibitors” (Universite Laval, priority 1998, dated 2005).

One data set relates to ZR-75-1 cells. Put plainly: Intracellular accumulation of inhibitor and polyamine contents (HPLC) in ZR-75-1 cells. The class given is cell-based, human.
The test system of data set [1] is polyamine transporter. Put plainly: Inhibition of [14C]spermine uptake in ZR-75-1 cells. The format is cell-based, human. On the procedure: The rate of putrescine and spermidine transport was determined in ZR-75-1 cells incubated in serum-free RPMI 1640 medium as described (Lessard, M., Zhao, C., Singh, S. M. and Poulin, R. 1995. J. Biol. Chem. 270: 1685-1694), using [^3H]putrescine (30 Ci/mol) and [^3H]spermidine (20 Ci/mol), respectively as substrates for a 20 minute-assay period. […] Uptake activity was expressed per amount of DNA as fluorometrically determined using 3,4-diaminobenzoic acid (Simard, J., Dauvois, S., Haagensen, D. E., Lėvesque, C., Mėrand, Y. and Labrie, F. 1990. Endocrinology, 126: 3223-3231). For the determination of spermidine uptake activity in CHO-K1 cells, 80% confluent cell monolayers were rinsed twice with PBS and incubated for 20 minutes at 37° C. in 400 μl of buffer A (20 mM Tris-HCl, pH 7.4; 0.42 mM CaCl2; 0.41 mM MgSO4; 103 mM NaCl; 5.7 mM KCl; 1.1 mM D-glucose) containing 5 μM [^3H]spermidine (20 Ci/mol). Cell cultures were then washed twice with 1 ml PBS containing 5.7 mM sym-norspermidine. Cells were then lysed with 200-μl aliquot of 1 N NaOH and incubated for 30 minutes at 60° C. After neutralization with 200 μl of 1 N HCl, radioactivity was determined from a 250-μl of the cell lysate by scintillation counting. Uptake activity was expressed per amount of total cellular protein as determined by the method of Bradford (Bradford, M. M. 1976. Anal. Biochem. 72: 248-254). Non-specific binding of radioactive substrate was similarly determined in parallel for both cell lines after a 15 second-incubation with 400 μl of ice-cold uptake solution.
Kinetic analysis of polyamine transport was performed by determining uptake activity in the presence of a 3 μM [^3H]putrescine or 1 μM [^3H]spermidine plus increasing concentrations of nonradioactive substrate. K[…] Ki and Vmax values were then estimated by Lineweaver-Burke analysis. For competitive inhibitors, Ki values were also estimated by measuring uptake activity in the presence of logarithmically increasing concentrations of antagonist, and using the Cheng-Prusoff equation (Cheng, Y.-C. and Prusoff, W. H. 1973. Biochem. Pharmacol. 22: 3099-3108) by iterative curve fitting for a sigmoidal curve. For mixed competitive/noncompetitive inhibition, two methods were used to calculate kinetic constants. First, the equation [drawing 2] where v, s, and i are the transport velocity, substrate concentration and inhibitor concentration respectively, was used to calculate the inhibition constants for inhibitor/carrier complex formation (Ki) and carrier/inhibitor/substrate complex formation (Ki′) (Dixon, M. and Webb, E. C. 1976. Enzymes, 3rd Ed., Academic Press, San Diego, Calif.). Alternatively, the value of Ki for a mixed competitor/non-competitor was estimated from the intersect of equations v^−1 vs i at two different substrate concentrations (Dixon, M. and Webb, E. C. 1976. Enzymes, 3rd Ed., Academic Press, San Diego, Calif.). Intracellular Accumulation
In order to evaluate the effectiveness of dimeric triamines as polyamine transport inhibitors, we synthesized N,N′-bis(3-aminopropyl),N,N′-bis(4-aminobutyl)cystamine or BABAC (structure 1, FIG. 25; FIG. 31), and its thiol form N-(3-aminopropyl),N-(4-aminobutyl)cysteamine or AAC (FIG. 31) according to Scheme 4 described above (FIG. 30), using spermidine as a precursor polyamine. The ability of BABAC and AAC to inhibit the intracellular uptake of radio-labeled putrescine and spermidine in the ZR-75-1 human breast cancer cell line was then determined according to standard published procedures (Lessard, et al. and Poulin, et al.) Briefly, ZR-75-1 cells were grown for four days in twenty-four well plates in RPMI 1640 medium supplemented with 10% fetal bovine serum.

For data set [2], the system named is polyamine transporter. The data set can be described thus: Inhibition of [3H]spermidine uptake in CHO-K1 cells. The class given is cell-based, Chinese hamster. Particulars: [3H]spermidine as substrate. The protocol: To 1 ml of an extemporaneously prepared, DTT-free solution of MESC (20 mM in […]) were added 50 μl of 50 mM Tris-HCl (pH 7.0) and 105 μl of a 40 mM solution of either iodoacetamide, LY iodoacetamide or ASIB in a light-protected microcentrifuge tube, and the mixture was incubated for 2 hours at 37° C. […] Excess iodoacetamide was then inactivated by adding DTT to a final concentration of 40 mM and incubating the solution for 2 hours at 37° C. […] The effect of the respective DTT-inactivated iodoacetamide on spermidine transport was determined in parallel by incubating cells with the same reaction mixture from which MESC was omitted. […] J. Biol. […] Cells were then lysed with 200-μl aliquot of 1 N NaOH and incubated for 30 minutes at 60° C. After neutralization with 200 μl of 1 N HCl, radioactivity was determined from a 250-μl of the cell lysate by scintillation counting. Uptake activity was expressed per amount of total cellular protein as determined by the method of Bradford (Bradford, M. M. 1976. Anal. Biochem. 72: 248-254). […] K[…] Ki and Vmax values were then estimated by Lineweaver-Burke analysis. For competitive inhibitors, Ki values were also estimated by measuring uptake activity in the presence of logarithmically increasing concentrations of antagonist, and using the Cheng-Prusoff equation (Cheng, Y.-C. and Prusoff, W. H. 1973. Biochem. Pharmacol. 22: 3099-3108) by iterative curve fitting for a sigmoidal curve. For mixed competitive/noncompetitive inhibition, two methods were used to calculate kinetic constants. […] C. 1976. Enzymes, 3rd Ed., Academic Press, San Diego, Calif.). […] C. 1976. Enzymes, 3rd Ed., Academic Press, San Diego, Calif.). Intracellular Accumulation

The mark [3] stands for this setting: 200 μM compound + 200 μM CHX, 1 h.
Setting [4] is: 200 μM compound + 200 μM CHX, 6 h.
Setting [5] is: this work, read-out: Km or Ki, spermine transport.

In the case of `NCCCNCCCC(NCCCN)C(=O)NCCSSCCNC(=O)C(CCCNCCCN)NCCCN` (stereo not shown) [DESC, 2,2′-dithiobis(N-ethyl-spermine-5-carboxamide)], the Spermine intracellular content worked out at 8.27 ± 0.81 nmol/mg protein in the data set with ZR-75-1 cells (50 μM compound, 1 h); 9.57 ± 0.31 nmol/mg protein with ZR-75-1 cells (setting [3]); 9.55 ± 0.13 nmol/mg protein in the data set with ZR-75-1 cells (setting [4]); 8.77 ± 0.79 nmol/mg protein with ZR-75-1 cells (200 μM compound, 1 h); 8.66 ± 0.26 nmol/mg protein in the data set on ZR-75-1 cells (200 μM compound, 6 h). For the same molecule, in the data set on ZR-75-1 cells (200 μM DESC, 6-hour incubation), the “DESC accumulation as % of accumulation measured for spermine under identical conditions” value is recorded as “about 1.5%”. Further, the results for the DESC intracellular content in the data set with ZR-75-1 cells (setting [3]) and in the data set with ZR-75-1 cells (setting [4]) were below 0.01 nmol/mg protein and 0.10 nmol/mg protein, respectively. Further, in the data set with ZR-75-1 cells (setting [3]), the Spermidine intracellular content is reported as 0.75 ± 0.04 nmol/mg protein. Further, the Ki came out at 7.5 µM in the data set with polyamine transporter [1] (FIG. 32, read-out: Apparent Ki, spermine uptake); 5 ± 0.7 µM in the data set with polyamine transporter [1] (setting [5]); 0.92 ± 0.15 µM with polyamine transporter [2].

Take `NCCCNCCCC(NCCCN)C(=O)NCCS` (stereo not shown) [MESC, N-(2-mercaptoethyl)spermine-5-carboxamide]: the Spermine intracellular content with ZR-75-1 cells (50 μM compound, 1 h) is 7.77 ± 0.06 nmol/mg protein; with ZR-75-1 cells (50 μM compound, 6 h) it was 8.13 ± 0.17 nmol/mg protein; in the data set with ZR-75-1 cells (200 μM compound, 1 h) it was 8.93 ± 0.53 nmol/mg protein; in the data set on ZR-75-1 cells (200 μM compound, 6 h), 8.32 ± 0.43 nmol/mg protein. Further, the “Ki for [14C]spermine transport, fold higher than that of DESC” value with polyamine transporter [1] (FIG. 2) is on record as around 16 fold. For the same molecule, the Ki with polyamine transporter [1] (setting [5]) stood at 80 ± 31 µM; in the data set with polyamine transporter [2], 33.6 ± 7.2 µM.
